Consider 14 compounds from patent publication US8378117B2 (priority 2005, dated 2013).

Read-outs that look alike come from different tables or passages of the source.

For experiment [1], the target named is T1, CB1 receptor (Homo sapiens, UniProt P21554).
T1 construct: expressed in transfected cells
In words: Binding assay for CB1 agonists or inverse agonists (SK-N-MC membranes, [3H]-CP-55,940). Conditions: for CB1 receptor binding average percent inhibition: value shown is an average percent inhibition (footnote 5), concentration not given; for CB1 receptor binding percent inhibition: test concentration not stated. The method, boiled down: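 Membranes from SK-N-MC cells stably expressing human CB1 incubated with compound and [3H]-CP-55,940 ([…]) for 90 min at 30° C in Tris-HCl pH 7.5, MgCl2, EDTA, fatty-acid-free BSA. Non-specific binding defined with 10 uM WIN 55,212; filtration, scintillation count; IC50 by linear regression.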

In a further experiment the target is T2, CB2 receptor (Homo sapiens, UniProt P34972).
T2 construct: expressed in transfected cells
T2 sequence (P34972 whole entry): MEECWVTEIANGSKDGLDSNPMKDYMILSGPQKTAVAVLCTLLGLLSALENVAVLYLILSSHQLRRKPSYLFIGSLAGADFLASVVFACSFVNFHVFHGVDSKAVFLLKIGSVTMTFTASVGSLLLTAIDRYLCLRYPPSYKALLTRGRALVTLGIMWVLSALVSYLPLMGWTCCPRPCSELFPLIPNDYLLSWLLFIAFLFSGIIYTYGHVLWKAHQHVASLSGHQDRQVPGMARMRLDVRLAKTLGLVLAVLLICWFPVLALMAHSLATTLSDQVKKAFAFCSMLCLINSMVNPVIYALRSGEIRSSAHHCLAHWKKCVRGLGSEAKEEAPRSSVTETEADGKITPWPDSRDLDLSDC
The experiment is described as follows: Binding assay for CB2 agonists or inverse agonists (SK-N-MC membranes, [3H]-CP-55,940). Conditions: for IC50: Cannabinoid CB2 Receptor Binding IC50, calculated by linear regression from percent inhibition at various test concentrations; for CB2 receptor binding percent inhibition: test concentration not stated. The gist of the method: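 Membranes from SK-N-MC cells stably expressing human CB2 were incubated with radioligand and test compounds for 90 min at 30 °C in Tris-HCl buffer, pH 7.5, with MgCl2, EDTA and fatty-acid-free BSA. Filter-bound radioactivity was counted; IC50 was derived by linear regression of percent inhibition.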

Experiment [2] has as its target T1, CB1 receptor. In words: cell-based. An excerpt:
The CB1 and CB2 receptors are G-protein coupled receptors (GPCR), which influence cell function via the Gi-protein. These receptors modulate the activity of intracellular adenylate cyclase, which in turn produces the intracellular signal messenger cyclic-AMP (cAMP).
At baseline, or during non-ligand bound conditions, these receptors are constitutively active and tonically suppress adenylate cyclase activity. The binding of an agonist causes further receptor activation and produces additional suppression of adenylate cyclase activity. The binding of an inverse agonist inhibits the constitutive activity of the receptors and results in an increase in adenylate cyclase activity.
By monitoring intracellular adenylate cyclase activity, the ability of compounds to act as agonists or inverse agonists can be determined.
Test compounds were evaluated in SK-N-MC cells which, using standard transfection procedures, were stably transfected with human cDNA for pcDNA3-CRE β-gal and pcDNA3 CB1 receptor (human) or pcDNA3 CB2 receptor (human). By expressing CRE β-gal, the cells produced β-galactosidase in response to CRE promoter activation by cAMP. Cells expressing CRE β-gal and either the human CB1 or CB2 receptor will produce less β-galactosidase when treated with a CB1/CB2 agonist and will produce more β-galactosidase when treated with a CB1/CB2 inverse agonist.
The cells were grown in 96-well plates under standard cell culture conditions at 37° C. in a 5% CO2 atmosphere and culture media (wherein the media was supplemented with 2 mM L-glutamine, […] sodium pyruvate, 10% FBS (fetal bovine serum) and antibiotics).
The change in forskolin induced β-galactosidase activity was determined by setting a vehicle treated cell's activity value at 100% and expressing the β-galactosidase activity measured in a corresponding compound treated cell as a percent of the vehicle treated cell activity.
The EC50 value for functional activity for compounds tested was calculated by linear regression and was obtained from studies in which varying compound concentrations were used.
Where an EC50 value was not obtained for a test compound, the value shown (in %) represents change in functional activity and was obtained from a study in which one compound concentration was used.

The mark [3] stands for this setting: Cannabinoid CB1 Receptor Binding IC50, calculated by linear regression from percent inhibition at various test concentrations.
Where [4] appears, read: CB1 Receptor Functional Inverse Agonist EC50, forskolin induced β-galactosidase activity, SK-N-MC cells.
Where [5] appears, read: forskolin induced β-galactosidase activity, SK-N-MC cells, read-out: CB1 Receptor Functional Inverse Agonist EC50.
Setting [6] is: read-out: CB1 receptor binding percent inhibition, test concentration 1 μM (footnote 1).
[7] abbreviates: read-out: CB1 receptor binding percent inhibition, test concentration 0.5 μM (footnote 10).
Where [8] appears, read: SK-N-MC cells, forskolin induced β-galactosidase activity, read-out: CB1 Receptor Functional Agonist EC50.
Setting [9] is: read-out: CB1 receptor binding percent inhibition.

T1 sequence (P21554 whole entry): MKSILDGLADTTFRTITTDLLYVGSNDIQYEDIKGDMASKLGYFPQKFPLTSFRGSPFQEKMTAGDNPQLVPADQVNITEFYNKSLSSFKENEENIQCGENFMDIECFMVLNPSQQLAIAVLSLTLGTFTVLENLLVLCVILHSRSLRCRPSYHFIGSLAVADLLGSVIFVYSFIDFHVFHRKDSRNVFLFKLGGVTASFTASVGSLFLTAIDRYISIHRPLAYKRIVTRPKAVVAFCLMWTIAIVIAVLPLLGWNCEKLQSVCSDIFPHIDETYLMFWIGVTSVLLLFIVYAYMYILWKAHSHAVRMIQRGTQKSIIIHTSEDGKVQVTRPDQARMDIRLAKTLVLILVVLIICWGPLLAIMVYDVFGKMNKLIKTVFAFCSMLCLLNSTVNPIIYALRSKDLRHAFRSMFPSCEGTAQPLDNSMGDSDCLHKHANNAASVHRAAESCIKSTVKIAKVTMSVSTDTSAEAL

As a reminder, the IC50 is the concentration at which inhibition is half-maximal. Broadly, the EC50 is the midpoint of the concentration-response curve. In the case of `COC(=O)[C@@H](Cc1ccc(O)cc1)NC(=O)c1nn(C2CCCCC2)c2c1CCCCC2Cc1ccc(F)cc1` (stereo partly drawn) [Cpd 83, (2R)-2-{[1-cyclohexyl-8-(4-fluoro-benzyl)-1,4,5,6,7,8-hexahydro-cycloheptapyrazole-3-carbonyl]-amino}-3-(4-hydroxy-phenyl)-propionic acid methyl ester], the IC50 on CB1 receptor [1] (setting [3]) is 100 nM; at CB2 receptor, 10 nM. For the same compound, the “CB1 receptor binding average percent inhibition” value on CB1 receptor [1] turned out to be 90%. Further, the “CB2 receptor binding average percent inhibition” value on CB2 receptor (value shown is an average percent inhibition (footnote 5), concentration not given) is 98%. At CB1 receptor [2] (CB1 Receptor Functional Agonist EC50, SK-N-MC cells, forskolin induced β-galactosidase activity), this compound returned an EC50 of 1700 nM.
Regarding `O=C(NN1CCCCC1)c1nn(-c2ccc(Cl)cc2Cl)c2c1CCCCC2Cc1cccc(F)c1` (stereo not drawn) [Cpd 84, 1-(2,4-dichloro-phenyl)-8-(3-fluoro-benzyl)-1,4,5,6,7,8-hexahydro-cycloheptapyrazole-3-carboxylic acid piperidin-1-ylamide], the IC50 at CB1 receptor [1] (setting [3]) is 700 nM. Besides, the “CB1 receptor binding average percent inhibition” value at CB1 receptor [1] is recorded as 67%. Further, at CB2 receptor, the “CB2 receptor binding percent inhibition” value is listed as 11%. On CB1 receptor [2] (setting [4]), this compound had an EC50 of 100 nM.
As to `O=C(NN1CCCCC1)c1nn(-c2ccc(Cl)cc2Cl)c2c1CCCCC2Cc1ccc(F)cc1` (stereo not drawn) [Cpd 85, 1-(2,4-dichloro-phenyl)-8-(4-fluoro-benzyl)-1,4,5,6,7,8-hexahydro-cycloheptapyrazole-3-carboxylic acid piperidin-1-ylamide], at CB1 receptor [1], the “CB1 receptor binding average percent inhibition” value is “^(5)39%”. The “CB2 receptor binding percent inhibition” value at CB2 receptor came out at 5%. In addition, at CB1 receptor [2] (setting [5]), the EC50 turned out to be 300 nM.
Take `O=C(NN1CCOCC1)c1nn(-c2ccc(Cl)cc2Cl)c2c1CCCCC2Cc1cccc(F)c1` (stereo not drawn) [Cpd 91, 1-(2,4-dichloro-phenyl)-8-(3-fluoro-benzyl)-1,4,5,6,7,8-hexahydro-cycloheptapyrazole-3-carboxylic acid morpholin-4-ylamide]: the IC50 on CB1 receptor [1] (setting [3]) is 300 nM. Moreover, the inhibition at 1 µM at CB1 receptor [1] (setting [6]) turned out to be 68%. At CB2 receptor, the “CB2 receptor binding percent inhibition” value amounted to 0%. Moreover, on CB1 receptor [2] (setting [4]), the EC50 amounted to 70 nM.
With `CC12CCC(C1)C(C)(C)[C@H]2NC(=O)c1nn(-c2ccc(F)cc2F)c2c1CCCCC2Cc1cccc(F)c1` (stereo partly drawn) [Cpd 92, 1-(2,4-difluoro-phenyl)-8-(3-fluoro-benzyl)-1,4,5,6,7,8-hexahydro-cycloheptapyrazole-3-carboxylic acid [(2S)-1,3,3-trimethyl-bicyclo[2.2.1]hept-2-yl]-amide], the IC50 is 100 nM at CB1 receptor [1] (setting [3]) and 200 nM at CB2 receptor. The inhibition at 1 µM at CB1 receptor [1] (setting [6]) stood at 86%; at CB2 receptor (read-out: CB2 receptor binding percent inhibition, test concentration 1 μM (footnote 1)), 82%. Also, the EC50 at CB1 receptor [2] (setting [4]) was 90 nM.
For the compound `C[C@H](NS(=O)(=O)/C=C/c1nn(-c2ccc(F)cc2F)c2c1CCCCC2Cc1cccc(F)c1)c1ccccc1` (stereo partly drawn) [Cpd 93, (2E)-2-[1-(2,4-difluoro-phenyl)-8-(3-fluoro-benzyl)-1,4,5,6,7,8-hexahydro-cycloheptapyrazol-3-yl]-ethenesulfonic acid [(1S)-1-phenyl-ethyl]-amide], on CB1 receptor [1] (setting [3]), the IC50 is 400 nM. Besides, the inhibition at 1 µM at CB1 receptor [1] (setting [6]) was 70%. The “CB2 receptor binding percent inhibition” value on CB2 receptor is given as 58%. At CB1 receptor [2] (setting [4]), this compound yielded an EC50 of 50 nM.
On to `C[C@H](NS(=O)(=O)/C=C/c1nn(-c2ccc(F)cc2F)c2c1CCCCC2Cc1cccc(F)c1)C1CCCCC1` (stereo partly drawn) [Cpd 94, (2E)-2-[1-(2,4-difluoro-phenyl)-8-(3-fluoro-benzyl)-1,4,5,6,7,8-hexahydro-cycloheptapyrazol-3-yl]-ethenesulfonic acid [(1S)-1-cyclohexyl-ethyl]-amide], for which the inhibition at 1 µM on CB1 receptor [1] (setting [6]) was 38%. Moreover, on CB2 receptor, the “CB2 receptor binding percent inhibition” value was 1%. In addition, the EC50 on CB1 receptor [2] (setting [5]) is 200 nM.
Take `CCOC(=O)[C@H]1C2C=CC(C2)[C@H]1NC(=O)c1nn(-c2ccc(F)cc2F)c2c1CCCCC2Cc1cccc(F)c1` (stereo partly drawn) [Cpd 99, (2S,3R)-3-{[1-(2,4-difluoro-phenyl)-8-(3-fluoro-benzyl)-1,4,5,6,7,8-hexahydro-cycloheptapyrazole-3-carbonyl]-amino}-bicyclo[2.2.1]hept-5-ene-2-carboxylic acid ethyl ester]: the inhibition at 1 µM on CB1 receptor [1] (setting [6]) was 17%. At CB2 receptor, the “CB2 receptor binding percent inhibition” value came out at 24%. Also, the EC50 on CB1 receptor [2] (setting [5]) worked out at 200 nM.
`COC(=O)[C@@H](Cc1ccc(O)cc1)NC(=O)c1nn(-c2ccc(Cl)cc2Cl)c2c1CCCCC2Cc1cccc(Cl)c1` (stereo partly drawn) [Cpd 102, (2R)-2-{[8-(3-chloro-benzyl)-1-(2,4-dichloro-phenyl)-1,4,5,6,7,8-hexahydro-cycloheptapyrazole-3-carbonyl]-amino}-3-(4-hydroxy-phenyl)-propionic acid methyl ester]: the IC50 on CB1 receptor [1] (setting [3]) was 600 nM. The inhibition at 0.5 µM at CB1 receptor [1] (setting [7]) amounted to 55%. In addition, the inhibition at 1 µM at CB1 receptor [1] (setting [6]) was 77%. The “CB2 receptor binding percent inhibition” value on CB2 receptor was 59%. Further, on CB1 receptor [2] (setting [4]), the midpoint of the response, the EC50, lay at 70 nM.
Regarding `C[C@H](NS(=O)(=O)/C=C/c1nn(C)c2c1CCCCC2Cc1cccc(F)c1)c1ccccc1` (stereo partly drawn) [Cpd 104, (2E)-2-[8-(3-fluoro-benzyl)-1-methyl-1,4,5,6,7,8-hexahydro-cycloheptapyrazol-3-yl]-ethenesulfonic acid [(1S)-1-phenyl-ethyl]-amide], the inhibition at 1 µM at CB1 receptor [1] (setting [6]) is 19%. In addition, the “CB2 receptor binding percent inhibition” value at CB2 receptor is listed as 93%. The same compound yielded an EC50 at CB1 receptor [2] (setting [4]) of 100 nM.
In the case of `C[C@H](NS(=O)(=O)/C=C/c1nn(-c2ccc(F)cc2F)c2c1CCCCC2Cc1ccc(F)cc1)c1ccccc1` (stereo partly drawn) [Cpd 107, (2E)-2-[1-(2,4-difluoro-phenyl)-8-(4-fluoro-benzyl)-1,4,5,6,7,8-hexahydro-cycloheptapyrazol-3-yl]-ethenesulfonic acid [(1S)-1-phenyl-ethyl]-amide], the IC50 at CB1 receptor [1] (calculated by linear regression from percent inhibition at various test concentrations, read-out: Cannabinoid CB1 Receptor Binding IC50) was 300 nM. In addition, the inhibition at 0.5 µM at CB1 receptor [1] (setting [7]) was 59%. At CB1 receptor [1] (setting [6]), the inhibition at 1 µM turned out to be 72%. The “CB2 receptor binding percent inhibition” value at CB2 receptor was 64%. In addition, the EC50 on CB1 receptor [2] (setting [8]) turned out to be 19800 nM.
Turning to `CCOC(=O)[C@@H]1C2CCC(C2)[C@@H]1NC(=O)c1nn(-c2ccc(F)cc2F)c2c1CCCCC2Cc1ccc(F)cc1` (stereo partly drawn) [Cpd 110, (2R,3S)-3-{[1-(2,4-difluoro-phenyl)-8-(4-fluoro-benzyl)-1,4,5,6,7,8-hexahydro-cycloheptapyrazole-3-carbonyl]-amino}-bicyclo[2.2.1]heptane-2-carboxylic acid ethyl ester], at CB1 receptor [1] (setting [9]), the inhibition at 0.5 µM was found to be 48% and the inhibition at 1 µM is 63%. In addition, the “CB1 receptor binding percent inhibition” value at CB1 receptor [1] is listed as 56%. In addition, the “CB2 receptor binding percent inhibition” value on CB2 receptor is 59%. For the same compound, on CB1 receptor [2] (setting [4]), the EC50 is 100 nM.
Regarding `CCOC(=O)[C@@H]1C2CCC(C2)[C@@H]1NC(=O)c1nn(-c2ccc(F)cc2F)c2c1CCCCC2Cc1cccc(F)c1` (stereo partly drawn) [Cpd 111, (2R,3S)-3-{[1-(2,4-difluoro-phenyl)-8-(3-fluoro-benzyl)-1,4,5,6,7,8-hexahydro-cycloheptapyrazole-3-carbonyl]-amino}-bicyclo[2.2.1]heptane-2-carboxylic acid ethyl ester], the inhibition at 0.5 µM at CB1 receptor [1] (setting [7]) is 45%. In addition, on CB1 receptor [1] (setting [6]), the inhibition at 1 µM worked out at 62%. Moreover, on CB1 receptor [1], the “CB1 receptor binding percent inhibition” value turned out to be 54%. Moreover, at CB2 receptor, the “CB2 receptor binding percent inhibition” value turned out to be 65%. The same compound displayed an EC50 at CB1 receptor [2] (setting [4]) of 90 nM.
For the compound `O=C(NN1CCOCC1)c1nn(-c2ccc(F)cc2F)c2c1CCCCC2Cc1cccc(F)c1` (stereo not drawn) [Cpd 116, 1-(2,4-difluoro-phenyl)-8-(3-fluoro-benzyl)-1,4,5,6,7,8-hexahydro-cycloheptapyrazole-3-carboxylic acid morpholin-4-ylamide], the inhibition at 1 µM at CB1 receptor [1] (setting [6]) amounted to 14%. On CB2 receptor, the “CB2 receptor binding percent inhibition” value is 24%. For the same compound, on CB1 receptor [2] (setting [8]), the EC50 is 300 nM.
